Like-named read-outs stand apart in the source and are kept apart here.
Experiments:
Assay type in all cases: cell-based, rat
[1] = system: voltage-gated Na+ currents (INa) in pituitary GH3 cells; assay: Whole-cell patch-clamp of voltage-gated Na+ current evoked by depolarization from −80 to −10 mV; details: for Effect on SSM-induced inhibition of peak INa: 10 μM added in continued presence of SSM (3 μM); for Effect on peak amplitude of INa: −80 to −10 mV (Figure 2); for IC50: GH3 cells, depolarization −80 to −10 mV
Procedure: In an initial step of the experiments, we examined the effects of SSM on the amplitude and gating of INa in response to rapid membrane depolarization. Cells were bathed in Ca^2+-free Tyrode’s solution containing 10 mM tetraethylammonium chloride (TEA) and the recording pipette was backfilled with a Cs^+-containing solution. […] For example, when rapid membrane depolarization from −80 to −10 mV with a duration of 40 msec was delivered (indicated in the inset of Figure 1A) to evoke INa, the addition of 3 μM SSM caused a decrease in the peak or sustained amplitude of INa to 139 ± 11 pA (n = 11, P < 0.05) or 12 ± 3 pA (n = 11, P < 0.05), respectively, from the control values of 248 ± 18 or 21 ± 2 pA (n = 11). After the removal of SSM, the peak and sustained amplitude returned to 232 ± 16 or 19 ± 2 pA (n = 7, P < 0.05).
The bath solution (i.e., a HEPES-buffered normal Tyrode’s solution) utilized in the present study was composed of 136 mM NaCl, 5.4 mM KCl, 1.8 mM CaCl2, 0.53 mM MgCl2, 5.5 mM glucose, and 5.5 mM HEPES titrated with NaOH to pH 7.4. To measure macroscopic IK(DR) and Ih, we filled patch pipettes by using a solution containing 130 mM K-aspartate, 20 mM KCl, 1 mM KH2PO4, 1 mM MgCl2, 3 mM Na2ATP, 0.1 mM Na2GTP, 0.1 mM EGTA, and 5 mM HEPES adjusted with KOH to pH 7.2. To record INa and INa(R), we substituted K^+ ions in the pipette solution inside the electrode for equmolar Cs^+ ions and the pH value in the solution was adjusted to 7.2 with CsOH. To measure IK(erg) and IK(M), cells were bathed in a high-K^+ solution containing 145 mM KCl, 0.53 mM MgCl2, and 5 mM HEPES-KOH buffer, pH 7.4. All solutions were prepared using deionized water from a Millipore Milli-Q purification system (ρ = 18 MΩ·cm) (Merck, Ltd., Taipei, Taiwan). The pipette solution and culture medium were filtered on the day of use with a sterile Acrodisc® syringe filter with a 0.2-μm Supor® membrane (Bio-Check; New Taipei City, Taiwan).
The pituitary adenomatous cell line, GH3, was acquired from the Bioresource Collection and Research Center ((BCRC-60015, https://catalog.bcrc.firdi.org.tw/BcrcContent?bid=60015); Hsinchu, Taiwan). Cells were maintained in Ham’s F-12 medium supplemented with 2.5% fetal bovine serum (v/v), 15% horse serum (v/v), and 2 mM L-glutamine in a humidified environment of 5% CO2/95% air. When well differentiated, GH3 cells were transferred to a serum- and Ca^2+-free medium. Electrical recordings were performed 5 or 6 days after cells were cultured with 60–80% confluence.
On the day of each experiment, cells were dispersed with a 1% trypsin/EDTA solution and a few drops of cell suspension were rapidly placed in a custom-built recording chamber mounted on the stage of an inverted DM-IL microscope (Leica; Major Instruments, Kaohsiung, Taiwan). They were immersed at room temperature (20–25 °C) in normal Tyrode’s solution, the composition of which is elaborated above. We measured ion currents in the whole-cell model of a standard patch-clamp technique with dynamic adaptive suctioning (i.e., decremental change of suction pressure in response to a progressive increase in the electrode resistance), with the aid of an RK-400 (Bio-Logic, Claix, France) or an Axopatch-200B (Molecular Devices, Sunnyvale, CA) patch amplifier. The microelectrodes used were prepared from Kimax-51 borosilicate capillaries with a 1.5-mm outer diameter (#34500; Kimble; Dogger, New Taipei City, Taiwan) by using a PP-830 vertical puller (Narishige, Taiwan Instrument, Taipei, Taiwan). The recording electrodes had their tip resistances, which ranged between 3 and 5 MΩ, as they were filled up with the different internal solutions elaborated above. During the measurements, the recorded area on the vibration-free table was shielded by using a Faraday cage (Scitech, Seoul, South Korea). […]

[2] = system: resurgent INa (INa(R)) in GH3 cells; assay: Whole-cell patch-clamp of resurgent INa (step to +20 mV, repolarization to −50 to 0 mV); details: 1 μM; at −30 mV; control 46 ± 6 pA; n = 8
From the text: We next wanted to determine whether SSM exerts any effects on INa(R) identified from these cells. The whole-cell experiments on INa(R) were undertaken when each cell was voltage clamped at −80 mV and a brief depolarizing step to +20 mV was delivered to activate transient INa. The INa(R) upon repolarization to various potentials ranging between −50 and 0 mV was thereafter measured at the end of voltage pulses (Figure 4). The effect of SSM on INa(R) was examined at various membrane potentials, and the I-V relationship of INa(R) with or without the addition of SSM was constructed. […]
(§1) On the day of each experiment, cells were dispersed with a 1% trypsin/EDTA solution and a few drops of cell suspension were rapidly placed in a custom-built recording chamber mounted on the stage of an inverted DM-IL microscope (Leica; Major Instruments, Kaohsiung, Taiwan). […] We measured ion currents in the whole-cell model of a standard patch-clamp technique with dynamic adaptive suctioning (i.e., decremental change of suction pressure in response to a progressive increase in the electrode resistance), with the aid of an RK-400 (Bio-Logic, Claix, France) or an Axopatch-200B (Molecular Devices, Sunnyvale, CA) patch amplifier. […] During the measurements, the recorded area on the vibration-free table was shielded by using a Faraday cage (Scitech, Seoul, South Korea). […]

[3] = system: M-type K+ currents (IK(M)) in GH3 cells; assay: Whole-cell patch-clamp of M-type K+ current (depolarization from −50 to −10 mV, 1 sec); details: amplitude at end of pulse, read-out: IC50 for decrease of IK
From the text: The following experiments were further undertaken to determine whether the addition of SSM could exert any perturbations on the amplitude or gating of IK(M) in these cells. Cells were bathed in high-K^+, Ca^2+-free solution, and the recording pipette was then filled with K^+-enriched solution. Figure 5 illustrates that the presence of SSM can result in a concentration-dependent depression in the amplitude of IK(M) during step depolarization.
The bath solution (i.e., a HEPES-buffered normal Tyrode’s solution) utilized in the present study was composed of 136 mM NaCl, 5.4 mM KCl, 1.8 mM CaCl2, 0.53 mM MgCl2, 5.5 mM glucose, and 5.5 mM HEPES titrated with NaOH to pH 7.4. […]
On the day of each experiment, cells were dispersed with a 1% trypsin/EDTA solution and a few drops of cell suspension were rapidly placed in a custom-built recording chamber mounted on the stage of an inverted DM-IL microscope (Leica; Major Instruments, Kaohsiung, Taiwan). […] We measured ion currents in the whole-cell model of a standard patch-clamp technique with dynamic adaptive suctioning (i.e., decremental change of suction pressure in response to a progressive increase in the electrode resistance), with the aid of an RK-400 (Bio-Logic, Claix, France) or an Axopatch-200B (Molecular Devices, Sunnyvale, CA) patch amplifier. […]

[4] = system: delayed rectifier K+ currents (IK(DR)) in GH3 cells; assay: Whole-cell patch-clamp of delayed rectifier K+ current (1-sec step depolarization)
Procedure: We next examined whether the presence of SSM is able to modify IK(DR) present in GH3 cells. To achieve this goal, we bathed cells in Ca^2+-free Tyrode’s solution which contained 1 μM TTX, and then filled up the recording electrode by using K^+-containing solution. When cells were exposed to SSM at a concentration of 3 μM, the amplitude of IK(DR) in response to a 1-sec step depolarization was unchanged. It is noted, however, that the IK(DR) amplitudes responding to different levels of depolarizing command steps were decreased by the addition of 10 μM SSM, though the activation time course of IK(DR) evoked by membrane depolarization remained unchanged.
(§2) The bath solution (i.e., a HEPES-buffered normal Tyrode’s solution) utilized in the present study was composed of 136 mM NaCl, 5.4 mM KCl, 1.8 mM CaCl2, 0.53 mM MgCl2, 5.5 mM glucose, and 5.5 mM HEPES titrated with NaOH to pH 7.4. To measure macroscopic IK(DR) and Ih, we filled patch pipettes by using a solution containing 130 mM K-aspartate, 20 mM KCl, 1 mM KH2PO4, 1 mM MgCl2, 3 mM Na2ATP, 0.1 mM Na2GTP, 0.1 mM EGTA, and 5 mM HEPES adjusted with KOH to pH 7.2. To record INa and INa(R), we substituted K^+ ions in the pipette solution inside the electrode for equmolar Cs^+ ions and the pH value in the solution was adjusted to 7.2 with CsOH. […]
as §1

[5] = system: hyperpolarization-activated cation currents (Ih) in GH3 cells; assay: Whole-cell patch-clamp of hyperpolarization-activated cation current (−40 to −110 mV)
Procedure: In the following experiments, we further studied whether the presence of SSM could perturb another type of inwardly directed current, i.e., Ih. Cells were exposed to Ca^2+-free Tyrode’s solution containing 1 μM TTX and the pipette was filled with K^+-containing solution. As the hyperpolarizing command pulse from −40 to −110 mV with a duration of 2 sec was delivered, Ih with a slowly activating property was robustly evoked, as observed previously. […] Cilobradine has recently been reported to decrease Ih amplitude, as well as to alter activation kinetics present in different types of excitable cells.
as §2, §1

[6] = amplitude at beginning of pulse, read-out: IC50 for decrease of peak INa
[7] = amplitude at end of pulse, read-out: IC50 for decrease of sustained INa

For `Cc1c(F)c(F)c(COC(=O)[C@@H]2[C@H](/C=C(\Cl)C(F)(F)F)C2(C)C)c(F)c1F` (racemic) [tefluthrin, reference compound], the “Effect on SSM-induced inhibition of peak INa” value [1] was “effective in reversing”.

`c1cc2c(cc1[C@H]1OC[C@H]3[C@@H]1CO[C@@H]3c1ccc3c(c1)OCO3)OCO2` [SSM, [1S-(1α,3aα,4α,6aα)] -5,5’- (tetrahydro-1H,3H-furo [3–4-c]furan-1,4-diyl)bis-1,3-benzodioxole] was tested, and the “Effect on peak amplitude of INa” value ([1]; 3 μM) was “produced inhibitory effects”, the “Sustained amplitude of INa” value ([1]; 3 μM, −80 to −10 mV, 40 msec, control 21 ± 2 pA, n = 11) was 12 ± 3 pA and the “Peak amplitude of INa” value ([1]; 3 μM, −80 to −10 mV, 40 msec, control 248 ± 18 pA, n = 11) was 139 ± 11 pA. The “Effect on peak component of INa” value ([1]; 0.1 to 0.3 μM) was “little or no effect”, the “Effect on sustained component of INa” value ([1]; 0.1 to 0.3 μM) was “effectively blocked” and the IC50 [1, 6] was 7.2 µM. The IC50 [1, 7] was 0.6 µM, the Kd ([1]; first-order reaction scheme, open-state block, read-out: Dissociation constant (KD = k−1/k+1*) of INa block) was 0.93 µM and the “Unblocking (backward) rate constant k−1 of INa block” value ([1]; from intercept of 1/τinact(S) versus [SSM]) was 0.0415 msec^−1. The “Blocking (forward) rate constant k+1* of INa block” value ([1]; from slope of 1/τinact(S) versus [SSM]) was 0.0449 msec^−1μM^−1, the “Peak amplitude of INa after removal of compound” value ([1]; washout after 3 μM, n = 7) was 232 ± 16 pA and the “Sustained amplitude of INa after removal of compound” value ([1]; washout after 3 μM, n = 7) was 19 ± 2 pA. The “INa(R) amplitude” value [2] was 22 ± 5 pA, the IC50 [3] was 4.8 µM and the “Effect on amplitude of IK(DR)” value ([4]; 3 μM, 1-sec step depolarization) was “unchanged”. The “IK(DR) amplitude” value ([4]; 10 μM, at +40 mV, control 598 ± 34 pA, n = 8) was 454 ± 29 pA, the “Decrease of IK(DR) amplitude” value ([4]; 10 μM, at +40 mV, n = 8) was 23 ± 4% and the “Ih amplitude at end of hyperpolarizing step” value ([5]; 10 μM, at −110 mV, control 388 ± 24 pA, n = 9) was 386 ± 26 pA.

`c1cc2c(cc1O[C@H]1OC[C@H]3[C@@H]1CO[C@@H]3c1ccc3c(c1)OCO3)OCO2` [SesA, 5-[(1S,3aR,4R,6aR)-4-(1,3-benzodioxol-5-yloxy)tetrahydro-1H,3H-furo[3,4-c]furan-1-yl]-1,3-benzodioxole] was tested, and the “Effect on peak amplitude of INa” value ([1]; 3 μM) was “produced inhibitory effects”, the IC50 [1, 6] was 9.8 µM and the IC50 [1, 7] was 2.5 µM. The “Effect on Ih amplitude” value ([5]; 10 μM) was “minimal effect”.

For `COc1ccc(CCN2CCC[C@H](CN3CCc4cc(OC)c(OC)cc4CC3=O)C2)cc1OC` [cilobradine, reference compound], the “Effect on Ih amplitude” value ([5]; 3 or 10 μM added in continued presence of SSM (10 μM)) was “highly effective at inhibiting”.

With `CCCc1nc2c(C)cc(-c3nc4ccccc4n3C)cc2n1Cc1ccc(-c2ccccc2C(=O)O)cc1` [telmisartan, reference compound] the “Effect on SSM-induced inhibition of peak INa” value [1] was “effective in reversing”.

Reference: article PMC7411736, “Effects of Sesamin, the Major Furofuran Lignan of Sesame Oil, on the Amplitude and Gating of Voltage-Gated Na^+ and K^+ Currents” (Molecules, 2020)
